Test results published in patent US20190029960A1, “Therapeutic Nanoparticles Having EGFR Ligands and Methods of Making and Using Same” (Pfizer Inc., priority 2016, published 2019).

Columns and labels:
recombinant human EGFR = target: T1, recombinant human EGFR (Homo sapiens, UniProt P00533); experiment: EGF competition ELISA; type: binding
T1 construct: Fc; purchased R&D Systems
Procedure: Plates were blocked for 2 h with 2% BSA in PBS at RT. […] Plates were washed three times with PBS containing 0.05% Tween-20 (PBS-T) and then incubated with a 1:10,000 dilution of streptavidin-HRP (Thermo Fisher Scientific) diluted in assay buffer for 90 min at RT. Plates were washed an additional three times with PBS-T, and then incubated with TMB substrate (BioFx) for 15 min at RT. Reactions were stopped with stop solution (BioFx) and absorbance was read at 450 nm in a microplate reader (SpectraMax M5e, Molecular Devices).
Plates were blocked for 2 hours with 2% BSA in PBS at room temperature (RT). […] Peptides were reconstituted as 100% DMSO stocks, resulting in a final concentration of DMSO in the assay of 2% for all samples. Plates were washed three times with PBS containing 0.05% Tween-20 (PBS-T) and then incubated with a 1:10,000 dilution of streptavidin-HRP (Piece) diluted in assay buffer for 90 minutes at RT. Plates were washed an additional three times with PBS-T and then incubated with TMB substrate (BioFx) for 15 minutes at RT. The reaction was stopped with stop solution (BioFx) and absorbance was read at 450 nm in a microplate reader (SpectraMax M5e, Molecular Devices).

[1] = target: T2, Fc tagged recombinant human EGFR (rhEGFR-Fc) (Homo sapiens, UniProt P00533); type: binding; settings: Without EGF
T2 construct: purchased R&D Systems 344-ER-050
T2 sequence (P00533 with tags, fused parts or gaps limits assumed): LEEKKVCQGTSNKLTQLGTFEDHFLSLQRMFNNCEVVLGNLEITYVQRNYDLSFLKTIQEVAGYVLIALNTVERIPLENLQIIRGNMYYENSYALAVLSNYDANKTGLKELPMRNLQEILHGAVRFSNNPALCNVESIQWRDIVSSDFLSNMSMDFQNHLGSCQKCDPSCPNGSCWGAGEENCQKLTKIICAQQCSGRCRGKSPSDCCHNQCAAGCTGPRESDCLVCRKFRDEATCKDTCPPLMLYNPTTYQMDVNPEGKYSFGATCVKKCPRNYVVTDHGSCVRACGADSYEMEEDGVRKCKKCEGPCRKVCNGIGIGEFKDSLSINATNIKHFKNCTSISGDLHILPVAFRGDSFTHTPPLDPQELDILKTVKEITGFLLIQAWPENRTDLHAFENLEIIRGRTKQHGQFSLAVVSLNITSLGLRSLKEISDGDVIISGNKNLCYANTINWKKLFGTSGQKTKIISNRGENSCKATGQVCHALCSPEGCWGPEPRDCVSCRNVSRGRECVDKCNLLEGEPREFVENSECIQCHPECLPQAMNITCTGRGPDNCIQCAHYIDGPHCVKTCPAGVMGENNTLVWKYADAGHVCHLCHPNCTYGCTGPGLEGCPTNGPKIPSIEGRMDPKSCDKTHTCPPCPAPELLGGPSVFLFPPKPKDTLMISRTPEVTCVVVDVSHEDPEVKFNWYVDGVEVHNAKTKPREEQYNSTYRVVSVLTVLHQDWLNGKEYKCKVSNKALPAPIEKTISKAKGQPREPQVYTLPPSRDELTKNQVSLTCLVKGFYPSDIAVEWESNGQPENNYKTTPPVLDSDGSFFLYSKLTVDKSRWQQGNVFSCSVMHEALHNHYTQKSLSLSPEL
Procedure: (§1) Surface plasmon resonance (SPR) binding studies were carried out on a Biacore T200 instrument (GE Healthcare). Approximately 10,000 RU of anti-Fc antibody (GE Healthcare, Cat #BR100839) was immobilized via amine coupling on each of flow cells 1 and 2 of a CM5 dextran-coated gold sensor chip (GE Healthcare, Cat #BR100530). […] The contact time and resulting amount of rhEGFR-Fc capture was varied based on the nature of the analyte, namely whether it was a peptide or nanoparticle.
(§2) Peptide binding assays were carried out in 10 mM PBS buffer supplemented with 0.05% surfactant P20 and 5% DMSO by volume, at 25° C. Peptides were injected over the rhEGFR-Fc surface for 60 s, followed by dissociation (buffer injection) for 60 s and regeneration with a 10 s pulse of 3M MgCl2. A fresh rhEGFR-Fc surface was generated for each concentration of each peptide tested. Peptide binding data was analyzed by fitting to a 1:1 Langmuir kinetic model to obtain the on-rate (ka), off-rate (kd) and/or equilibrium binding constant (KD) of the interaction.

EGF bound EGFR = target: T3, EGF bound EGFR (Homo sapiens, UniProt P00533); experiment: SPR peptide binding, rhEGF pre-injected; settings: With EGF
T3 construct: purchased R&D Systems 344-ER-050 (rhEGFR-Fc); 236-EG (rhEGF)
T3 sequence (P00533 with tags, fused parts or gaps limits assumed): as above
T3 sequence (P01133 971-1023 partner limits assumed): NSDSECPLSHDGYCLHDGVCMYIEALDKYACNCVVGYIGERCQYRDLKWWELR
Procedure: as §1, §2

T1 sequence (P00533 with tags, fused parts or gaps limits assumed): as the sequence (P00533 with tags, fused parts or gaps limits assumed) above

Q: For CC[C@H](C)[C@H](NC(=O)[C@@H]1CSSC[C@H](NC(=O)[C@H](CCC(=O)O)NC(=O)[C@H](CO)NC(C)=O)C(=O)N[C@@H](Cc2ccccc2)C(=O)N2CCC[C@H]2C(=O)N[C@@H](C)C(=O)N[C@@H](C)C(=O)N2CCC[C@H]2C(=O)N[C@@H](CC(=O)O)C(=O)N[C@@H](Cc2c[nH]c3ccccc23)C(=O)N[C@@H](CC(C)C)C(=O)N[C@@H](CO)C(=O)N1)C(=O)N[C@@H](CC(C)C)C(=O)NCC(=O)NCC(=O)N[C@@H](CCCCNC(=O)CCOCCOCCOCCOCCOCCNC(=O)CCC(=O)N1Cc2ccccc2C#Cc2ccccc21)C(N)=O [Peptide P1-3], which IC50 (recombinant human EGFR) is on record?
A: 4.1 µM

Q: With CC(=O)N[C@@H](CC(=O)O)C(=O)N1CCC[C@H]1C(=O)N[C@H]1CSSC[C@@H](C(=O)N[C@@H](CC(C)C)C(=O)N[C@@H](CCC(N)=O)C(=O)NCC(=O)NCC(=O)N[C@@H](CCCCNC(=O)CCOCCOCCOCCOCCOCCNC(=O)CCC(=O)N2Cc3ccccc3C#Cc3ccccc32)C(N)=O)NC(=O)[C@H](CCC(=O)O)NC(=O)[C@H](CCCNC(=N)N)NC(=O)CNC(=O)[C@H](Cc2c[nH]c3ccccc23)NC(=O)[C@H](C(C)C)NC(=O)[C@H](CCC(=O)O)NC(=O)[C@H](Cc2c[nH]c3ccccc23)NC(=O)[C@H]([C@@H](C)O)NC1=O [Peptide P2] as the compound, how does the kd [1] read?
A: 9 ± 2 × 10^−3 s^−1

Q: And the kd (EGF bound EGFR)?
A: 7 ± 2 × 10^−3 s^−1
